Entries after “also recorded” stand apart in the source; their conditions may differ. Read-outs that look alike come from different tables or passages of the source.
Key:
[1] = molecular target: T1, murine SR-BI with the C384S mutation (Mus musculus, UniProt Q61009, C384S); assay: Mutant SR-BI cholesterol efflux assay; type: cell-based
T1 construct: expressed in transfected cells; host or cells: CHO cell line lacking LDL receptors (variant of ldlA[mSR-BI])
T1 sequence (Q61009 1-509 C384S): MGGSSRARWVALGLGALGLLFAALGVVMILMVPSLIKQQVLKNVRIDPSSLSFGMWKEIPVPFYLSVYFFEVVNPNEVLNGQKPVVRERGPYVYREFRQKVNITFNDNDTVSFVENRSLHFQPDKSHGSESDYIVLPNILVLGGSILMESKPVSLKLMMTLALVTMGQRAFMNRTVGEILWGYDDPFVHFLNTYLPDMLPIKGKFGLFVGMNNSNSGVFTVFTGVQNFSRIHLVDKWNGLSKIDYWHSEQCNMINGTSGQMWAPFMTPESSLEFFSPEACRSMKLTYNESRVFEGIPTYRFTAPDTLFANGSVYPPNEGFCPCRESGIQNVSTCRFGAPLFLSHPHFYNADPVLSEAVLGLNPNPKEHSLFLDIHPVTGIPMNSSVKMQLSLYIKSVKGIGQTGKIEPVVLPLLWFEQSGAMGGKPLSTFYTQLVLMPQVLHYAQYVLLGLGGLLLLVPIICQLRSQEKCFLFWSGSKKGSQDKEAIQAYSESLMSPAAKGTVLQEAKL
Method: Mutant SR-BI Cholesterol Efflux Assay (SA 10: AID Nos. 588843, 602138)
BLT-1 is known to interact at cysteine 384 of SR-BI (16). […] This assay is used to determine if the compounds work in a similar fashion to BLT-1 and require Cys384 to alter the efflux of free cholesterol to HDL.
On Day 0, 50,000 cells expressing murine SR-BI with the C384S mutation per well were plated in 24-well plates. On the following day, […] On Day 1, the medium was replaced with Ham's F12 medium supplemented with 10% bovine lipoprotein deficient serum with 1 μCi/ml [1,2-^3H]cholesterol (40-60 Ci/mmol). On Day 3, the cells were washed to remove serum and incubated in Ham's F12 plus 1% fatty acid-free BSA. On Day 4, the cells were washed and pretreated with compounds for 1 hour. Subsequently, the cells were incubated for an additional 2 hours with the same concentrations of small molecules and with unlabeled HDL (final HDL concentration of 100 μg protein/ml). […] The amount of [^3H]cholesterol in the medium and within cells was calculated using liquid scintillation counting. Total cellular [^3H]cholesterol was determined as the sum of the radioactivity in the efflux medium plus the radioactivity in the cells and was used to calculate the [^3H]cholesterol efflux (percent of total [^3H]cholesterol released into the medium).

ldlA[mSR-BI] cells = assay: Cell cytotoxicity assay (CellTiter-Glo); type: cell-based, Chinese hamster
Method: It is possible that a compound will cause cells to decrease HDL-mediated DiI uptake due to nonspecific consequences of cellular toxicity, representing a second class of false positive hits. The cells were treated with compounds for 3 hours or 24 hours, and then cell viability was measured using the CellTiter-Glo Assay (Promega), a luciferase-based reagent that measures cellular ATP levels. The compounds were tested at different concentrations to determine IC50 values. […] Compounds that were active in the primary assay but toxic below 30 μM at 24 hours (but nontoxic at 3 hours) were still considered. […] Data were normalized against DMSO and the positive control (1 μM BLT-1) in Genedata Assay Analyzer.
All available dry powder samples of the remaining, non-quenching compounds were procured from commercial sources and purities were determined. The compounds obtained were then retested in the primary assay and in the cytotoxicity assays. We wanted to rule out any compounds that were cytotoxic, especially in the 3-hour time span of the primary DiI-HDL uptake assay. Therefore, compounds were tested in ldlA[mSR-BI]cells for cytotoxicity at 3 hours and 24 hours using the CellTiter-Glo assay (Promega) that measures cellular ATP as a marker of cell viability. […] Compounds were screened for inhibition of endocytosis using labeled transferrin, which is known to bind the transferrin receptor, enter cells by clathrin-mediated endocytosis, and move to endosomes before being recycled to the cell surface. The BLT compounds have also been tested for potential interference with endocytosis and show no such activity.

C384S SR-BI = molecular target: T2, C384S SR-BI (Mus musculus, UniProt Q61009, C384S); assay: Radioactive HDL uptake assay (mutant SR-BI); type: cell-based, murine
T2 construct: expressed in transfected cells; host or cells: CHO cell line lacking LDL receptors (variant of ldlA[mSR-BI])
T2 sequence (Q61009 1-509 C384S): T1 sequence (Q61009 1-509 C384S)
Description: Radioactive HDL Uptake Assay (mutant SR-BI) (SA 9: AID No. 588837)
BLT-1 is known to interact at cysteine 384 of SR-BI (16). […] This assay is used to determine if the compounds work in a similar fashion to BLT-1 and require Cys384 to alter the binding of HDL particles and uptake of the lipid to the mutant SR-BI scavenger receptor, using an alternative means of labeling HDL-cholesterol particles and avoiding any type of fluorescence measurement. To measure this lipid uptake event, HDL particles are labeled with [^3H]cholesteryl ester and added to C384S SR-BI cells. Cells take up HDL lipids via the mutant SR-BI in 2 to 3 hours. After significant uptake of the HDL lipid, the radiolabel can be detected by liquid scintillation counting. The level of radioactivity correlates with the amount of HDL lipid uptake. The uptake of lipid from the HDL particles can be inhibited by the compound BLT-1 or when co-treated with an excess of unlabeled HDL. The mSR-BI cells utilized in the assay are a CHO cell line lacking expression of the LDL receptors and overexpressing the mutant scavenger receptor, C384S SR-BI.

CCCCCCC1CCCC1=NNC(N)=S (stereo not drawn) [BLT-1, reference compound]
efflux of cholesterol in Cys384Ser mutant background [1]: does not significantly reduce uptake of HDL or efflux of cholesterol
cytotoxicity (ldlA[mSR-BI] cells): toxic to cells
uptake of HDL in Cys384Ser mutant background (C384S SR-BI): does not significantly reduce uptake of HDL or efflux of cholesterol

COCC(=O)N1CCc2cc(-c3csc(NC(=O)c4cc(OC)cc(OC)c4)n3)ccc21 [Compound 137, 3,5-Dimethoxy-N-(4-(1-(2-methoxyacetyl)indolin-5-yl)thiazol-2-yl)benzamide]
efflux of cholesterol in Cys384Ser mutant background [1]: can reduce uptake and efflux in the mutant background
cytotoxicity (ldlA[mSR-BI] cells; listed as ML278): no cytotoxicity at 24 hours; also recorded: shows no cytotoxicity
uptake of HDL in Cys384Ser mutant background (C384S SR-BI): can reduce uptake and efflux in the mutant background

Reference: patent publication US9951055B2, “Thiazole-based inhibitors of scavenger receptor BI” (THE BROAD INSTITUTE, INC., priority 2012, dated 2018)
